Experiments:
Format in all cases: cell-based
Mouse Bone Marrow Cells = assay: Cytotoxic/cytostatic effects on mouse bone marrow cells (MTT assay)
Protocol: In Vitro Assessment of Cytotoxic/Cytostatic Effects of Experimental Compound ^85Rbe-E2 on Mouse Bone Marrow Cells
(§1) Proliferative and metabolic activity of cells was determined by the colorimetric method.
(§2) The metabolic activity of the cells (i.e., the number of living cells) was assessed by MTT staining.
(§3) 24 hours after the last reagent, the cells were seeded at a concentration of 1×10^4 cells/well in wells of a 96-well plate in complete DMEM nutrient medium with 10% FBS and 40 μg/ml gentamicin. The cells were cultured in a humidified atmosphere at 5% CO2 and 37° C. for 24 hours. After 24 hours, various doses of experimental substances were added to the respective wells. The cells were incubated at 37° C. and 5% CO2 for an additional 72 hours.
(§4) Upon completion of the incubation with the preparations, the proliferative and metabolic activity of the cells in the experiment was evaluated by the colorimetric method by staining MTT cells:
(§5) 10 μl of the MTT solution (5 mg/ml of the dye in phosphate-buffered saline) was added to each well of the plate; the plate was incubated in a CO2 incubator at 37° C. for 3 hours. After that, the medium was removed from the wells, and the formed tetraformazan crystals were dissolved in 100 μl of dimethylsulfoxide.
(§6) When MTT was used, the results were evaluated using a multi-well spectrophotometer at an excitation wavelength of 540 nm. The percentage of viable cells was calculated by the formula: IR=(A540(experiment)/A540(control))×100%.

Normal Human Fibroblasts = assay: Metabolic activity of normal human fibroblasts (MTT assay)
Protocol: In Vitro Assessment of the Effects of Experimental Compound ^85Rbe-E2 on metabolic Activity of Normal Human Fibroblasts (MTT Assay)
In Vitro Assessment of the Effects of E2+^85Rbe on Metabolic Activity of Normal Human Fibroblasts (MTT Assay)
as §1, §2, §3, §4, §5, §6

[1] = test system: Mouse melanoma cells (MM-4 cell line); assay: Cytotoxic effect on melanoma cells, single agents (crystal violet)
Protocol: Materials and Methods: Mouse melanoma cells (MM-4 cell line) were seeded into 96-well plates (TPP, Italy) in DMEM (High Glucose w/L-Glutamine w/o Sodium Pyruvate; Biowest, France) supplemented with 10% newborn calf serum (Biowest, France) and […] gentamicin (Sigma, USA) at a seeding density of 5×10^4 cells/ml. The cells were then cultured in an incubator with a humidified atmosphere of 5% CO2 in air at 37° C. 24 hours after the cells were seeded, a compound according to the invention that comprises ^85Rb-enriched rubidium salt of N-benzoyl-N′-(4-toluenesulfonyl)-o-phenylenediamine of formula I was added into the appropriate wells. ^85Rbe-E2 was used at the following doses: 2.0 μg/ml, 1.0 μg/ml, 0.5 μg/ml (each is the final concentration of ^85Rbe after addition to the well). The cytotoxic effect was determined by counting the number of live cells observed after treatment, expressed as a percentage of the number of live cells observed/counted in the control (cells seed in the well and not treated). Control cells were not treated. For each concentration, the experiment was carried out twice. The effects of the drugs were evaluated visually, which allowed us to examine the morphological pattern of the cytotoxic action of the drugs, and by staining the cells with crystal violet, followed by OD measurement at an excitation wavelength of 540 nm using a MultiScan spectrophotometer. For comparison, a parallel experiment was carried out with the use of a known antitumor drug cisplatin and a compound of rubidium salt of N-benzoyl-N′-(4-toluenesulfonyl)-o-phenylenediamine of formula I which comprised a naturally-abundant mixture of isotopes of rubidium instead of being enriched for the ^85Rb isotope.

[2] = test system: human Keratinocytes (HaCaT line); assay: Metabolic activity of human keratinocytes (HaCaT line)
Protocol: In Vitro Effects of Experimental Compound ^85Rbe-E2 on metabolic activity of human Keratinocytes
as §1, §2, §3, §4, §5, §6

Cc1ccc(S(=O)(=O)[N-]c2ccccc2NC(=O)c2ccccc2)cc1.[Rb+] [E2 + Rb, rubidium salt of N-benzoyl-N′-(4-toluenesulfonyl)-o-phenylenediamine]
Metabolic activity of cells, % (Mouse Bone Marrow Cells; 1.25 μg/ml): 111.2 ± 6.6% | Metabolic activity of cells, % (Mouse Bone Marrow Cells; 2.5 μg/ml): 106.8 ± 6% | Metabolic activity of cells, % (Mouse Bone Marrow Cells; 5 μg/ml): 106.7 ± 11.8% | Metabolic activity of cells, % (Mouse Bone Marrow Cells; 10 μg/ml): 99.3 ± 4.7% | Metabolic activity of cells, % (Mouse Bone Marrow Cells; 20 μg/ml): 88 ± 3.5% | Metabolic activity of cells, % (Mouse Bone Marrow Cells; 38 μg/ml): 96.2 ± 4.4% | Metabolic activity of cells, % (Mouse Bone Marrow Cells; 75 μg/ml): 105.2 ± 7.8% | Metabolic activity of cells, % (Mouse Bone Marrow Cells; 150 μg/ml): 107.1 ± 3.8% | Metabolic activity of cells, % (Normal Human Fibroblasts; 2.5 μg/ml): 128.2 ± 8.3% | Metabolic activity of cells, % (Normal Human Fibroblasts; 5 μg/ml): 103.4 ± 9.3% | Metabolic activity of cells, % (Normal Human Fibroblasts; 10 μg/ml): 104.6 ± 14.2% | Metabolic activity of cells, % (Normal Human Fibroblasts; 20 μg/ml): 96.8 ± 9.8% | Metabolic activity of cells, % (Normal Human Fibroblasts; 38 μg/ml): 98.8 ± 7.1% | Metabolic activity of cells, % (Normal Human Fibroblasts; 75 μg/ml): 97.7 ± 7.5% | Metabolic activity of cells, % (Normal Human Fibroblasts; 150 μg/ml): 99.3 ± 3.2% | Number of cells after their treatment with the drug, % ([1]; 0.5 μg/ml of rubidium (85Rbe or Rb)): 90.6 ± 0.9% | Number of cells after their treatment with the drug, % ([1]; 1.0 μg/ml of rubidium (85Rbe or Rb)): 84.9 ± 0.9% | Number of cells after their treatment with the drug, % ([1]; 2.0 μg/ml of rubidium (85Rbe or Rb)): 62.1 ± 0.8% | Activity against tumor cells compared with the 85Rb-enriched salt ([1]; 0.5-2.0 μg rubidium/ml): significantly lower activity against tumor cells | Metabolic activity of cells, % ([2]; 16 ng/ml): 104.7 ± 3.2% | Metabolic activity of cells, % ([2]; 31 ng/ml): 99.2 ± 12.5% | Metabolic activity of cells, % ([2]; 62 ng/ml): 97.3 ± 4.1% | Metabolic activity of cells, % ([2]; 0.13 μg/ml): 87.5 ± 6.7% | Metabolic activity of cells, % ([2]; 0.25 μg/ml): 95 ± 1.7% | Metabolic activity of cells, % ([2]; 0.5 μg/ml): 103 ± 2.7% | Metabolic activity of cells, % ([2]; 1 μg/ml): 130 ± 2%

Source: patent US11286236B2, “Compound, agent and composition for the suppression of cancer growth” (Vector Vitale IP LLC, priority 2018, dated 2022)
